The values that follow are results of earlier work, collected in US20110152372A1, “ANHYDROUS PETROLEUM JELLY/ELASTOMER-FREE DEPIGMENTING COMPOSITIONS COMPRISING A SOLUBILIZED PHENOLIC COMPOUND AND A RETINOID” (Galderma Research & Development, priority 2008, published 2011).

Each structure is given as a SMILES string. Read-outs that look alike come from different tables or passages of the source.

For `Oc1ccc(O)cc1` [hydroquinone], the Incidence of irritation result (10% concentrations) is recorded as “relatively high”, the Incidence of irritation result (concentration of 2%) was “virtually nonexistent” and the Incidence of irritation entry (preparations with a 5% dose) is given as “reduces greatly”.
